In ChEMBL document CHEMBL1132901, “Synthesis and structure-activity relationships of quaternary ammonium cephalosporins with 3-pyrazolylpyridinium derivatives” (2000):
≈ marks a conversion by molar mass, not a printed value.

Each compound was assayed on Escherichia coli (assay: In vitro antimicrobial activity against Escherichia coli TEM). Settings: not given.
Type: functional
`CO/N=C(/C(=O)N[C@@H]1C(=O)N2C(C(=O)[O-])=C(C[n+]3cccc(-c4cc[nH]n4)c3)CS[C@H]12)c1csc(N)n1` showed an MIC of 0.195 µg/mL (≈ 0.361 µM).

What follows are compounds tested on Pseudomonas aeruginosa (assay: In vitro antimicrobial activity against Pseudomonas aeruginosa 1592 E). Settings: not given.
Type: functional
Work on `CO/N=C(/C(=O)N[C@@H]1C(=O)N2C(C(=O)[O-])=C(C[n+]3cccc(-c4cc[nH]n4)c3)CS[C@H]12)c1csc(N)n1` yielded an MIC of 12.5 µg/mL (≈ 23.1 µM).

The compounds below were run on Enterobacter cloacae (assay: In vitro antimicrobial activity against Enterobacter cloacae P99). Settings: not given.
Type: functional
For `CO/N=C(/C(=O)N[C@@H]1C(=O)N2C(C(=O)[O-])=C(C[n+]3cccc(-c4cc[nH]n4)c3)CS[C@H]12)c1csc(N)n1`, the MIC was > 25 µg/mL.

These compounds were tested on Pseudomonas aeruginosa (assay: In vitro antimicrobial activity against Pseudomonas aeruginosa 9027). Settings: not given.
Type: functional
Compound `CO/N=C(/C(=O)N[C@@H]1C(=O)N2C(C(=O)[O-])=C(C[n+]3cccc(-c4cc[nH]n4)c3)CS[C@H]12)c1csc(N)n1` has an MIC of 25 µg/mL (≈ 46.2 µM).

These compounds were tested on Pseudomonas aeruginosa (assay: In vitro antimicrobial activity against Pseudomonas aeruginosa 1771). Settings: not given.
Type: functional
`CO/N=C(/C(=O)N[C@@H]1C(=O)N2C(C(=O)[O-])=C(C[n+]3cccc(-c4cc[nH]n4)c3)CS[C@H]12)c1csc(N)n1` was tested, and the MIC was 6.25 µg/mL (≈ 11.6 µM).

The compounds below were run on Staphylococcus aureus (assay: In vitro antimicrobial activity against Staphylococcus aureus 503). Settings: not given.
Type: functional
For `CO/N=C(/C(=O)N[C@@H]1C(=O)N2C(C(=O)[O-])=C(C[n+]3cccc(-c4cc[nH]n4)c3)CS[C@H]12)c1csc(N)n1`, the MIC was 0.781 µg/mL (≈ 1.44 µM).

These compounds were tested on Pseudomonas aeruginosa (assay: In vitro antimicrobial activity against Pseudomonas aeruginosa 1771 M). Settings: not given.
Type: functional
`CO/N=C(/C(=O)N[C@@H]1C(=O)N2C(C(=O)[O-])=C(C[n+]3cccc(-c4cc[nH]n4)c3)CS[C@H]12)c1csc(N)n1` was tested, and the MIC was 3.12 µg/mL (≈ 5.78 µM).

These compounds were tested on Streptococcus pyogenes (assay: In vitro antimicrobial activity against Streptococcus pyogenes 77A). Settings: not given.
Type: functional
`CO/N=C(/C(=O)N[C@@H]1C(=O)N2C(C(=O)[O-])=C(C[n+]3cccc(-c4cc[nH]n4)c3)CS[C@H]12)c1csc(N)n1` gave an MIC of 0.025 µg/mL (≈ 0.0462 µM).

What follows are compounds tested on Staphylococcus aureus (assay: In vitro antimicrobial activity against Staphylococcus aureus 285). Settings: not given.
Type: functional
Work on `CO/N=C(/C(=O)N[C@@H]1C(=O)N2C(C(=O)[O-])=C(C[n+]3cccc(-c4cc[nH]n4)c3)CS[C@H]12)c1csc(N)n1` yielded an MIC of 3.12 µg/mL (≈ 5.78 µM).

What follows are compounds tested on Streptococcus pyogenes (assay: In vitro antimicrobial activity against Streptococcus pyogenes A 308). Settings: not given.
Type: functional
In the case of `CO/N=C(/C(=O)N[C@@H]1C(=O)N2C(C(=O)[O-])=C(C[n+]3cccc(-c4cc[nH]n4)c3)CS[C@H]12)c1csc(N)n1`, the MIC was 0.049 µg/mL (≈ 0.0906 µM).

These compounds were tested on Escherichia coli (assay: In vitro antimicrobial activity against Escherichia coli DC 0). Settings: not given.
Type: functional
In the case of `CO/N=C(/C(=O)N[C@@H]1C(=O)N2C(C(=O)[O-])=C(C[n+]3cccc(-c4cc[nH]n4)c3)CS[C@H]12)c1csc(N)n1`, the MIC was 0.098 µg/mL (≈ 0.181 µM).

What follows are compounds tested on Escherichia coli (assay: In vitro antimicrobial activity against Escherichia coli 1507E). Settings: not given.
Type: functional
For `CO/N=C(/C(=O)N[C@@H]1C(=O)N2C(C(=O)[O-])=C(C[n+]3cccc(-c4cc[nH]n4)c3)CS[C@H]12)c1csc(N)n1`, the MIC was 0.195 µg/mL (≈ 0.361 µM).

Each compound was assayed on Escherichia coli (assay: In vitro antimicrobial activity against Escherichia coli DC 2). Settings: not given.
Type: functional
`CO/N=C(/C(=O)N[C@@H]1C(=O)N2C(C(=O)[O-])=C(C[n+]3cccc(-c4cc[nH]n4)c3)CS[C@H]12)c1csc(N)n1` gave an MIC of 0.049 µg/mL (≈ 0.0906 µM).

These compounds were tested on Escherichia coli (assay: In vitro antimicrobial activity against Escherichia coli 055). Settings: not given.
Type: functional
Compound `CO/N=C(/C(=O)N[C@@H]1C(=O)N2C(C(=O)[O-])=C(C[n+]3cccc(-c4cc[nH]n4)c3)CS[C@H]12)c1csc(N)n1` has an MIC of 0.049 µg/mL (≈ 0.0906 µM).

Each compound was assayed on Klebsiella aerogenes (assay: In vitro antimicrobial activity against Klebsiella aerogenes 1522 E). Settings: not given.
Type: functional
Compound `CO/N=C(/C(=O)N[C@@H]1C(=O)N2C(C(=O)[O-])=C(C[n+]3cccc(-c4cc[nH]n4)c3)CS[C@H]12)c1csc(N)n1` has an MIC of 0.098 µg/mL (≈ 0.181 µM).

What follows are compounds tested on Streptococcus pyogenes (assay: In vitro antimicrobial activity against Streptococcus pyogenes SG 511). Settings: not given.
Type: functional
For `CO/N=C(/C(=O)N[C@@H]1C(=O)N2C(C(=O)[O-])=C(C[n+]3cccc(-c4cc[nH]n4)c3)CS[C@H]12)c1csc(N)n1`, the MIC was 3.12 µg/mL (≈ 5.78 µM).

What follows are compounds tested on Salmonella typhimurium (assay: In vitro antimicrobial activity against Salmonella Typhimurium). Settings: Salmonella enterica.
Type: functional, Salmonella enterica subsp. enterica serovar Typhimurium
For `CO/N=C(/C(=O)N[C@@H]1C(=O)N2C(C(=O)[O-])=C(C[n+]3cccc(-c4cc[nH]n4)c3)CS[C@H]12)c1csc(N)n1`, the MIC was 0.195 µg/mL (≈ 0.361 µM).

What follows are compounds tested on Enterococcus faecium (assay: In vitro antimicrobial activity against Streptococcus faecium MD 8b). Settings: not given.
Type: functional
`CO/N=C(/C(=O)N[C@@H]1C(=O)N2C(C(=O)[O-])=C(C[n+]3cccc(-c4cc[nH]n4)c3)CS[C@H]12)c1csc(N)n1` showed an MIC of 6.25 µg/mL (≈ 11.6 µM).

Each compound was assayed on Klebsiella oxytoca (assay: In vitro antimicrobial activity against Klebsiella oxytoca 1082). Settings: not given.
Type: functional
`CO/N=C(/C(=O)N[C@@H]1C(=O)N2C(C(=O)[O-])=C(C[n+]3cccc(-c4cc[nH]n4)c3)CS[C@H]12)c1csc(N)n1` showed an MIC of 6.25 µg/mL (≈ 11.6 µM).

Each compound was assayed on Enterobacter cloacae (assay: In vitro antimicrobial activity against Enterobacter 1321 E). Settings: not given.
Type: functional
For `CO/N=C(/C(=O)N[C@@H]1C(=O)N2C(C(=O)[O-])=C(C[n+]3cccc(-c4cc[nH]n4)c3)CS[C@H]12)c1csc(N)n1`, the MIC was 0.098 µg/mL (≈ 0.181 µM).
